Consider 1 molecule from patent US20260183396A1, “CXCR3 OVEREXPRESSION IN CAR-NK CELLS PRIMES MIGRATION/HOMING INTO THE TUMOR MICROENVIRONMENT” (DANA-FARBER CANCER INSTITUTE, INC., priority 2022, published 2026).

Data set [1] deals with MPM cell lines. As to the kind of experiment: CellTiter-Glo viability in MPM cell lines. Format: cell-based, human. As to conditions: cultured in vitro. How it is done: CellTiter-Glo luminescent cell viability assay. Cell viability was assessed using the CellTiter-Glo Luminescent Cell Viability assay (Promega, G7571) according to manufacturer's instructions. […] All conditions were tested in triplicate and plates were read on a Tecan Infinite Mplex Microplate Reader.

The subject of data set [2] is MPM tumor cell lines. In words: 3D vascular model of NK cell migration. Type of data set: cell-based, human. As to conditions: presence and absence of the vascular barrier. How it is done: 3D vascular model. To generate the tumor-vascular model, H226 spheroids were mixed with collagen rat tail hydrogel (2.5 mg/ml) and injected into the center gel region of the 3D microfluidic chamber (10-15 μL per each microfluidic chamber). After incubation for 30 minutes at 37° C. in sterile humidity chambers, the side wall of one flanked channel (media channel) was coated with a 150 μg/ml collagen solution in PBS to allow for better adhesion of eCs to the channel. After 15 mins, the channel was washed once with media. To create the 3D vessel, 25 μL cell suspension of 3×10^6 cells/ml human umbilical vein endothelial cells (HUVECs; C2519AS, Lonza) were injected in the media channel coated with collagen. The channel was rotated twice to create a confluent hollow-lumen 3D vessel. To allow the cells to attach to the media-gel interface and form a monolayer, the chip was incubated with cells face down for 15 mins. Next, 50 μL cell suspension was reinjected, and the chip was flipped to cover the upper part of the 3D vascular channel. After 90 mins of incubation in the humidity chamber at 37° C., cell culture media was gently added to both channels and further incubated to form a confluent monolayer. After vessel formation, NK cells (labelled with cell tracker) were added to the 3D vessel at 2:1 E:T ratio. […] NK cell migration+/−vessel was quantified at 24 hours. Image capture and analysis was performed using a fluorescence confocal microscope and processing software. The 3D vascular channels were rinsed in PBS and fixed with 4% PFA for 15 min at room temperature. Cell membranes were permeabilized with 0.1% Triton X-100 for 5 min at room temperature and washed twice with PBS. HUVEC cells were stained for F-actin with green phalloidin (Thermo Fisher Scientific A12379) and Hoechst 33342. Images were captured on a Nikon Eclipse 80i fluorescence microscope equipped with Z-stack (Prior) and CoolSNAP CCD camera (Roper Scientific).

`Nc1ncnc2c1ncn2[C@@H]1O[C@@H]2COP(=O)([S-])O[C@@H]3[C@H](O)[C@@H](COP([O-])(=S)O[C@H]2[C@H]1O)O[C@H]3n1cnc2c(N)ncnc21.[Na+].[Na+]` (some centres unmarked) [ADU-S100]: in data set [1], the “cytotoxicity in MPM cell lines” value is reported as “did not cause cytotoxicity”. For the same molecule, the NK cell migration result in data set [2] is “enhanced NK cell migration”.
